Results as given in patent US8304577B2, “Modulators of G protein-coupled receptor 88” (Bristol-Myers Squibb Company, priority 2009, dated 2012).

Molecular target: G protein-coupled receptor 88 (GPR88) (Homo sapiens, UniProt Q9GZN0)
Experiment: GPR88 functional assay: EC50 of Table 2 (GTPγS assay and cAMP HTRF assay described; table does not say which)
Assay type: cell-based
Details: class symbol; read-out: Range (EC50)
Experimental: 96 well GTPγS assay plates were purchased from Perkin Elmer. Wheat Germ Agglutinin PVT SPA beads and ^35S-GTPγS were purchased from Amersham GDP, GTPγS and all buffer reagents were from Sigma. 384 well white NBS plates were purchased from corning. Pertussis toxin was purchased from Calbiochem. All cell culture reagents were purchased from Invitrogen. Forskolin was purchased from Sigma. The cAMP HTRF kit was purchased fron Cisbio International.
The GTPγS assay buffer consisted of 10 mM MgCl2, 180 mM NaCl, 200 uM GDP, 0.167 mg/mL DTT, 1 mM EGTA and 20 mM HEPES pH7.4. This buffer was used for dilution of membranes, beads, and ^35S GTPγS components. To each well of the 96 well assay plate 48 ul assay buffer, 2 ul of 100× compound, 50 ul membrane solution (0.2 ug/ul), 50 ul ^35S GTPγS solution (0.8 nM) and 50 ul of SPA beads (10 mg/mL). Non-specific binding was determined by the addition of cold GTPγS to control wells. The plates were sealed with clear sealing tape and incubated at room temperature for 1 hour. GTPγS activity was detected using a Wallac Micro-Beta Trilux liquid scintillation counter. Non-specific binding was determined using 10 uM cold GTPγS.
The cAMP HTRF assay is modified from the Cisbio International kit procedure 62AM4PEJ. Assay plates were prepared by stamping 0.1 ul of 100× compound stock solutions diluted in DMSO or DMSO alone into 384 well NBS plates. The cAMP HTRF assay was performed using cells in suspension. The cAMP HTRF assay buffer consisted of Hank's Balanced Salt Solution (HBSS), 2 mM CaCl2, 5 mM MgCl2, 20 mM HEPES and 1 mM 3-isobutyl-1-methylxanthine (IBMX) (added fresh at the time of assay). For pertussis toxin treatment pertussis toxin (100 ng/mL) was added to culture medium for 16 hours prior to assay. Confluent cells were disrupted with cell dissociation buffer count cells then centrifuged at 1000×g for 5 minutes. The cell pellet was resuspended in assay buffer alone for basal cAMP measurements or with 0.75 uM forskolin (added immediately prior to addition to wells) for addition to all other wells. Using a Multidrop 384 (Lab systems) 10 ul of cell suspension was added to each well containing compound or DMSO. The plates were incubated at room temperature for 30 minutes covered. During this time the cAMP standard curve was prepared as per manufacturer's instruction. At the end of the incubation 10 ul of anti-cAMP cryptate and 10 ul cAMP-XL, diluted in manufacturer's lysis buffer, were added to each well. The plated were incubated at room temperature for 60 minutes covered then read on an Envision plate reader (Perkin Elmer) and the 665 nm/620 nm fluorescence ratio determined Fluorescence ratio values were converted to molar cAMP concentrations from the standard curve using the GraphPad Prism program.

Sequence of G protein-coupled receptor 88 (GPR88) (Q9GZN0 whole entry, species assumed): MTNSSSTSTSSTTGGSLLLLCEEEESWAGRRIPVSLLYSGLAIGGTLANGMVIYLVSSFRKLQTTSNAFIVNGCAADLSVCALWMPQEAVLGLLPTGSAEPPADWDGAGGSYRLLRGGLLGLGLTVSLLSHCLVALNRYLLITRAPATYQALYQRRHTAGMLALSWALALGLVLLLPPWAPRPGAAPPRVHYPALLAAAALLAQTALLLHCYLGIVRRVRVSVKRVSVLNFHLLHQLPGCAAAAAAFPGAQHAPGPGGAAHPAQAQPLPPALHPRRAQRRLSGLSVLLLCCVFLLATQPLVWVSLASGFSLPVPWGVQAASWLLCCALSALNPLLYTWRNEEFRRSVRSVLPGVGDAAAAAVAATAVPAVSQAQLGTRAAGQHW

| EC50 [µM] | Compound |
| --- | --- |
| 0.1 to 0.2 | CCCC(C)COc1ccc([C@H](CO)NC(=O)[C@@H](CO)c2ccccc2)cc1 (stereo partly drawn) [Example 3, (2R)-3-Hydroxy-N-((1R)-2-hydroxy-1-(4-(2-methylpentyloxy)phenyl)ethyl)-2-phenylpropanamide] |
| 0.1 to 0.2 | CCCC(C)COc1ccc([C@H](CNCC(C)CC)NC(=O)[C@@H](C)c2ccccc2)cc1 (stereo partly drawn) [Example 8, (2S)-N-((1R)-2-(2-Methylbutylamino)-1-(4-(2-methylpentyloxy)phenyl)ethyl)-2-phenylpropanamide] |
| 0.1 to 0.2 | CCCC(C)COc1ccc([C@H](CNC(=O)[C@@H](C)N)NC(=O)[C@@H](C)c2ccccc2)cc1 (stereo partly drawn) [Example 29, (2R)-2-Amino-N-((2R)-2-(4-(2-methylpentyloxy)phenyl)-2-((S)-2-phenylpropanamido)ethyl)propanamide] |
| 0.039 to 0.099 | CCCC(C)COc1ccc([C@H](CNC(=O)[C@@H](N)[C@@H](C)CC)NC(=O)[C@@H](C)c2ccccc2)cc1 (stereo partly drawn) [Example 19, (2S,3S)-2-Amino-3-methyl-N-((2R)-2-(4-(2-methylpentyloxy)phenyl)-2-((S)-2-phenylpropanamido)ethyl)pentanamide] |
| 0.1 to 0.2 | CCCC(C)COc1ccc([C@H](CNC(=O)[C@H](N)[C@@H](C)CC)NC(=O)[C@@H](C)c2ccccc2)cc1 (stereo partly drawn) [Example 33, (2R,3S)-2-Amino-3-methyl-N-((2R)-2-(4-(2-methylpentyloxy)phenyl)-2-((S)-2-phenylpropanamido)ethyl)pentanamide] |

The next lines start with the molecule.

| Compound | EC50 [µM] |
| --- | --- |
| CCCNC[C@H](NC(=O)[C@@H](C)c1ccccc1)c1ccc(OC[C@@H](C)CC)cc1 [Example 38, (S)-N-{(R)-1-[4-((S)-2-Methyl-butoxy)-phenyl]-2-propylamino-ethyl}-2-phenylpropionamide] | 0.1 to 0.2 |
| CCCC(C)COc1ccc([C@H](CNCC2(N)CCCC2)NC(=O)[C@@H](C)c2ccccc2)cc1 (stereo partly drawn) [Example 15, (2S)-N-((1R)-2-((1-Aminocyclopentyl)methylamino)-1-(4-(2-methylpentyloxy)phenyl)ethyl)-2-phenylpropanamide] | 0.039 to 0.099 |
| CCCC(C)COc1ccc([C@H](CNC(=O)[C@H](N)Cc2cscn2)NC(=O)[C@@H](C)c2ccccc2)cc1 (stereo partly drawn) [Example 34, (2R)-2-Amino-N-((2R)-2-(4-(2-methylpentyloxy)phenyl)-2-((S)-2-phenylpropanamido)ethyl)-3-(thiazol-4-yl)propanamide] | 0.1 to 0.2 |

Same assay, conditions: exact value given; read-out: Range (EC50)

| Compound | EC50 [µM] |
| --- | --- |
| CCCC(C)COc1ccc([C@H](CNC[C@@H]2CCCN2)NC(=O)[C@@H](C)c2ccccc2)cc1 (stereo partly drawn) [Example 16, (2S)-N-((1R)-1-(4-(2-Methylpentyloxy)phenyl)-2-((S)-pyrrolidin-2-ylmethylamino)ethyl)-2-phenylpropanamide] | 0.1 |
| CC(C)COc1ccc([C@@H](NC(=O)[C@@H](C)c2ccccc2)[C@H]2CCCN2)cc1 [Example 40, (S)-N-((R)-(4-Isobutoxyphenyl)((R)-pyrrolidin-2-yl)methyl)-2-phenylpropanamide] | 0.254 |
